Measured values published in patent US20240402608A1, “METHOD FOR NON-INVASIVE PRODUCTION OF DEFINED STRUCTURES INSIDE COMPARTMENTS AND COMPARTMENT” (MAX-PLANCK-GESELLSCHAFT ZUR FÖRDERUNG DER WISSENSCHAFTEN …, priority 2021, published 2024).
{Atto647N} = Atto 647N fluorescent dye

Legend:
[1] = Influx of fluorophore or ssDNA into GUVs with and without printed pore, confocal imaging; type: physicochemical; details: for influx into GUV containing a printed pore: GUV with printed hydrogel pore
Protocol: Representative confocal images of two adjacent GUVs (red, λex=488 nm) in the xy-(left) and an xz-plane (right, as indicated by white dashed line) are shown in FIG. 11c. […] The scalebar in the image of the xy-plane represents 20 μm.
Further representative confocal images of two adjacent GUVs, similar as described in FIG. 11c, are shown in FIG. 11d. […] The scalebar in the image of the xy-plane represents 20 μm.
Next, it was tested if the pores can transport larger and charged molecular cargo.
0.01 mg ml-1 Rhodamine B acrylate were added to the final solution for fluorescence microscopy.

[2] = Membrane permeability via fraction of successful printing attempts inside GUVs over time; details: not told
Protocol: The membrane permeability was determined by adding the respective components after incubation of the GUVs with the remaining components of the photoresist and quantifying the fraction of successful printing attempts, Nprint/Ntot, inside the GUVs over time (n=30 for each condition and time point). An exponential fit (black line) was used to determine the point in time of 50% success rate.
The resist was polymerized inside the GUV by two-photon 3D laser printing. […] The printing success rate was used as an indirect way to determine the membrane permeability of the non-fluorescent components. For this purpose, PEGDA or LAP was added to GUVs that were pre-incubated with the other resist components. Subsequently, the fraction of successful printing attempts, Npol/Ntot, was quantified for 30 GUVs per time point over the course of up to 100 minutes.
We use the interdependence of the permeability and the concentration inside of a GUV Cin [1] to determine the membrane permeability P via printing attempts:
where R is the GUV radius, Cout the concentration outside of the GUV and t the time.

| Compound | influx into GUV containing a printed pore [1] | influx into GUV containing a printed pore ([1]; listed as single-stranded DNA) | influx into adjacent GUV without printed pore ([1]; GUV without pore) | Papp at 12 mg mL-1 [2] |
| --- | --- | --- | --- | --- |
| 5′-Atto 647N TTTTTTAATTTTT 3′ (DNA, 5' {Atto647N}, backbone not given here) [13 base-long single-stranded DNA, 13 base-long single-stranded DNA labelled with Atto647N] | can diffuse into the GUV across the printed pore | influx | does not show DNA import | – |
| Cc1cc(C)c(C(=O)P(=O)([O-])c2ccccc2)c(C)c1.[Li+] [LAP, Lithium phenyl-2,4,6-trimethylbenzoylphosphinate] | – | – | – | 0.0987 ± 0.0325 ×10⁻⁶ cm/s |
